# Columns and labels:
# [1] = system: MDA-MB 231 (human breast cancer); experiment: Sulforhodamine B viability assay, MDA-MB 231; assay type: cell-based; settings: for SRB 24 h / SRB 48 h / SRB 72 h: Run 3 average
# Excerpt: Three different viability assays were chosen to complement each other and yielded results dependent on concentration and cell line: the Methyl Tetrazolium dye assay, the Sulforhodamine B fluorescent dye assay, and the Crystal Violet dye assay.
# (§1) The Sulforhodamine B and Crystal Violet assays provide information about protein and were used to complement the Methyl-Tetrazolium dye assay. […] It is used for the quantification of cellular proteins of cultured cells. The assay using Crystal Violet, a dye that binds electrostatically to proteins and stains DNA, provides a reliable, simple assay for measuring viability of cells.
# (§2) The Methyl Tetrazolium, Sulforhodamine B, and Crystal Violet assays were used to assess cell viabilities. The incubation times were 24 hours, 48 hours, and 72 hours. The Nerium oleander extract Anvirzel™ (a hot water extract of oleander obtained from Salud Integral, Honduras) was tested in concentrations ranging from 0.01 ng/mL to 10 ng/mL.
# (§3) Cells were detached by trypsinization (Trypsin-0.25% EDTA, Invitrogen, 25200-072) during the logarithmic phase of culture growth and plated in 96-well plates (18.000 cells/well) (Corning, Costar 359) in a final volume of 200 μl of medium per well. […] The absorbance was measured after 24 hours, 48 hours, and 72 hours of incubation.
# For the Sulforhodamine B assay, 96-well plates were fixed by 10% trichloroacetic acid (Fluka, 91228) and were incubated at 4° C. for 1 hour. Afterwards, plates were rinsed with water and cells were stained with 0.4% Sulforhodamine B (Sigma, 341738), dissolved in 1% acetic acid (Carlo Ebra, 401422) for 15 minutes at room temperature (RT). The unbound stain was washed twice with 1% acetic acid. Finally, 10 mM Tris Buffer pH 10.5 (Sigma, T6791) was added to dissolve the dye.
# (§4) The optical density of each plate was measured on a μQuant spectrophotometer and the data were analyzed with Gen5 software (μQuant Biomolecular Spectrophotometer MQX200 and Gen5™ Microplate Data Collection & Analysis software, BioTek® Instruments. Inc, April 2008). Absorbance was measured at 570 nm for all assays and a second wavelength was measured in order to subtract noise. For the Methyl-Tetrazolium assay this second wavelength was 630 nm and for the Sulforhodamine B and Crystal Violet assays it was 690 nm.
# [2] = system: HCT-15 (colorectal cancer); experiment: Crystal Violet viability assay, HCT-15; assay type: cell-based, human; design: key to CVE Average: absorbance at 570 nm (second wavelength subtracted); settings: for CVE Average 24 h / CVE Average 48 h / CVE Average 72 h: HCT-15, Run 1
# Excerpt: as §1, §2, §3
# For the Crystal Violet assay, the medium was removed from the 96-well plates, the plates rinsed with PBS (Sigma, P3813) and then the cells were […] by the addition of 10% formalin (MERCK, 1.04003.2500) for 20 minutes at RT. Formalin was removed and 0.25% aqueous crystal violet (Sigma, HT901), dissolved in water, was added for 10 minutes at RT. Unbound Crystal Violet was rinsed by washing with water and finally 33% acetic acid was added to dissolve the dye.
# as §4
smiles,measurement,setting,value
N.N.[Cl][Pt][Cl] [cisplatin],SRB 24 h Average,"[1]; Run 1, 0.1 μg/ml CDDP",1.792
same,SRB 48 h Average,"[1]; Run 1, 0.1 μg/ml CDDP",2.678
same,SRB 72 h Average,"[1]; Run 1, 0.1 μg/ml CDDP",2.873
same,SRB 24 h Average,"[1]; Run 1, 1 μg/ml CDDP",1.395
same,SRB 48 h Average,"[1]; Run 1, 1 μg/ml CDDP",2.254
same,SRB 72 h Average,"[1]; Run 1, 1 μg/ml CDDP",2.928
same,SRB 24 h Average,"[1]; Run 1, 10 μg/ml CDDP",1.785
same,SRB 48 h Average,"[1]; Run 1, 10 μg/ml CDDP",2.489
same,SRB 72 h Average,"[1]; Run 1, 10 μg/ml CDDP",2.962
same,SRB 24 h Average,"[1]; Run 1, 100 μg/ml CDDP",1.752
same,SRB 48 h Average,"[1]; Run 1, 100 μg/ml CDDP",2.457
same,SRB 72 h Average,"[1]; Run 1, 100 μg/ml CDDP",2.852
same,SRB 24 h Average,"[1]; Run 2, 0.1 μg/ml CDDP",1.576
same,SRB 48 h Average,"[1]; Run 2, 0.1 μg/ml CDDP",1.83
same,SRB 72 h Average,"[1]; Run 2, 0.1 μg/ml CDDP",2.1
same,SRB 24 h Average,"[1]; Run 2, 1 μg/ml CDDP",1.27
same,SRB 48 h Average,"[1]; Run 2, 1 μg/ml CDDP",1.162
same,SRB 72 h Average,"[1]; Run 2, 1 μg/ml CDDP",0.883
same,SRB 24 h Average,"[1]; Run 2, 10 μg/ml CDDP",1.598
same,SRB 48 h Average,"[1]; Run 2, 10 μg/ml CDDP",1.867
same,SRB 72 h Average,"[1]; Run 2, 10 μg/ml CDDP",1.755
same,SRB 24 h Average,"[1]; Run 2, 100 μg/ml CDDP",1.509
same,SRB 48 h Average,"[1]; Run 2, 100 μg/ml CDDP",1.048
same,SRB 72 h Average,"[1]; Run 2, 100 μg/ml CDDP",1.004
same,SRB 24 h,[1]; 0.1 μg/ml CDDP,2.643
same,SRB 48 h,[1]; 0.1 μg/ml CDDP,2.742
same,SRB 72 h,[1]; 0.1 μg/ml CDDP,2.87
same,SRB 24 h,[1]; 1 μg/ml CDDP,1.382
same,SRB 48 h,[1]; 1 μg/ml CDDP,1.537
same,SRB 72 h,[1]; 1 μg/ml CDDP,2.07
same,SRB 24 h,[1]; 10 μg/ml CDDP,2.134
same,SRB 48 h,[1]; 10 μg/ml CDDP,2.364
same,SRB 72 h,[1]; 10 μg/ml CDDP,2.593
same,SRB 24 h,[1]; 100 μg/ml CDDP,1.141
same,SRB 48 h,[1]; 100 μg/ml CDDP,1.464
same,SRB 72 h,[1]; 100 μg/ml CDDP,1.493
same,CVE Average 24 h,[2]; 0.1 μg/ml CDDP,0.787
same,CVE Average 48 h,[2]; 0.1 μg/ml CDDP,0.99
same,CVE Average 72 h,[2]; 0.1 μg/ml CDDP,2.312
same,CVE Average 24 h,[2]; 1 μg/ml CDDP,0.451
same,CVE Average 48 h,[2]; 1 μg/ml CDDP,0.187
same,CVE Average 72 h,[2]; 1 μg/ml CDDP,0.425
same,CVE Average 24 h,[2]; 10 μg/ml CDDP,0.59
same,CVE Average 48 h,[2]; 10 μg/ml CDDP,0.277
same,CVE Average 72 h,[2]; 10 μg/ml CDDP,0.282
same,CVE Average 24 h,[2]; 100 μg/ml CDDP,0.456
same,CVE Average 48 h,[2]; 100 μg/ml CDDP,0.214
same,CVE Average 72 h,[2]; 100 μg/ml CDDP,0.231
same,CVE Average,"[2]; Run 2, 24 h, 0.1 μg/ml CDDP",0.766
same,CVE Average,"[2]; Run 2, 24 h, 1 μg/ml CDDP",0.387
same,CVE Average,"[2]; Run 2, 24 h, 10 μg/ml CDDP",0.824
same,CVE Average,"[2]; Run 2, 24 h, 100 μg/ml CDDP",0.41
same,CVE Average,"[2]; Run 2, 48 h, 0.1 μg/ml CDDP",1.542
same,CVE Average,"[2]; Run 2, 48 h, 1 μg/ml CDDP",0.533
same,CVE Average,"[2]; Run 2, 48 h, 10 μg/ml CDDP",0.742
same,CVE Average,"[2]; Run 2, 48 h, 100 μg/ml CDDP",0.378
same,CVE Average,"[2]; Run 2, 72 h, 0.1 μg/ml CDDP",2.449
same,CVE Average,"[2]; Run 2, 72 h, 1 μg/ml CDDP",0.533
same,CVE Average,"[2]; Run 2, 72 h, 10 μg/ml CDDP",0.46
same,CVE Average,"[2]; Run 2, 72 h, 100 μg/ml CDDP",0.327
same,CVE Average,"[2]; Run 3, 24 h, 0.1 μg/ml CDDP",2.043
same,CVE Average,"[2]; Run 3, 24 h, 1 μg/ml CDDP",0.459
same,CVE Average,"[2]; Run 3, 24 h, 10 μg/ml CDDP",1.477
same,CVE Average,"[2]; Run 3, 24 h, 100 μg/ml CDDP",0.473
same,CVE Average,"[2]; Run 3, 48 h, 0.1 μg/ml CDDP",1.335
same,CVE Average,"[2]; Run 3, 48 h, 10 μg/ml CDDP",0.363
same,CVE Average,"[2]; Run 3, 48 h, 100 μg/ml CDDP",0.114
same,CVE Average,"[2]; Run 3, 72 h, 0.1 μg/ml CDDP",2.814
same,CVE Average,"[2]; Run 3, 72 h, 1 μg/ml CDDP",0.623
same,CVE Average,"[2]; Run 3, 72 h, 10 μg/ml CDDP",0.669
same,CVE Average,"[2]; Run 3, 72 h, 100 μg/ml CDDP",0.499

# From patent publication US20190343908A1, “Therapeutic Combination for the Treatment of Cancer” (Nerium Biotechnology Inc., priority 2011, published 2019)
